What is called Ki is a dissociation constant, usually derived from enzyme kinetics or from competition with a known ligand.

For the experiment, the target named is T1, HGFR (Homo sapiens, UniProt P08581).
T1 construct: purchased Upstate 14-526
T1 sequence (P08581 974-1390 limits assumed): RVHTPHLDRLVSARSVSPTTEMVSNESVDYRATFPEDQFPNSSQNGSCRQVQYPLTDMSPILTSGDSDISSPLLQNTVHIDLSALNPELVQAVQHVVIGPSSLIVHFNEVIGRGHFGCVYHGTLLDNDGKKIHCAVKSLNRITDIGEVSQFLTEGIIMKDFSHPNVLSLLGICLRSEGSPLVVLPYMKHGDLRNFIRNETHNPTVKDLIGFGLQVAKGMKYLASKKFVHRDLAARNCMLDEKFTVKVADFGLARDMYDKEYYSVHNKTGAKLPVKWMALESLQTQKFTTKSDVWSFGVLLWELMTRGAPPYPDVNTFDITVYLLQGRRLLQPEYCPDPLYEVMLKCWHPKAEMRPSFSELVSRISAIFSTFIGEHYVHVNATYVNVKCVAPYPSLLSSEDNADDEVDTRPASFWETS
Description: HGFR continuous-coupled spectrophotometric assay (tyrosine kinase activity on Met-2 substrate peptide). The class given is biochemical. The conditions noted are these: HGFR 50 nM, Met-2 peptide 0.5 mM, ATP 300 μM, 37° C., absorbance 340 nm; read-out: Ki.
Consider `CN(Cc1noc(C2CC2)n1)c1cnc2nnn(Cc3ccc4ncccc4c3)c2n1` [Example 95, N-[(5-cyclo-propyl-1,2,4-oxa-diazol-3-yl)meth-yl]-N-methyl-1-(quino-lin-6-yl-methyl)-1H-[1,2,3]tri-azolo[4,5-b]pyra-zin-6-amine], for which the Ki turned out to be 20 nM.

Consider `c1cnc2ccc(Cn3nnc4ncc(N5CCNCC5)nc43)cc2c1` [Example 33, 6-((6-(piperazin-1-yl)-1H-[1,2,3]triazolo[4,5-b]pyrazin-1-yl)methyl)quinoline], for which the Ki was determined as 10 nM.

With `CC(=O)NCCNc1cnc2nnn(Cc3ccc4ncccc4c3)c2n1` [Example 111, N-(2-{[1-(quino-lin-6-yl-methyl)-1H-[1,2,3]tri-azolo[4,5-b]pyra-zin-6-yl]ami-no}ethyl)aceta-mide], the Ki came out at 27 nM.

For the compound `Brc1cnc2nnn(Cc3ccc4c(c3)CCO4)c2n1` [Example 41, 6-Bromo-1-(2,3-dihydro-benzofuran-5-ylmethyl)-1H-[1,2,3]triazolo[4,5-b]pyrazine], the Ki amounted to 36 nM.

On to `CN[C@@H]1CCN(c2cnc3nnn(Cc4ccc5ncccc5c4)c3n2)C1` [Example 134, (3R)-N-methyl-1-[1-(quino-lin-6-yl-methyl)-1H-[1,2,3]tri-azolo[4,5-b]pyra-zin-6-yl]pyrro-lidin-3-amine], for which the Ki is 7 nM.

With `CS(=O)(=O)C1CCN(c2cnc3nnn(Cc4ccc5ncccc5c4)c3n2)C1` (stereo not drawn) [Example 81, 6-({6-[3-(meth-ylsulfonyl)pyr-rolidin-1-yl]-1H-[1,2,3]tri-azolo[4,5-b]pyra-zin-1-yl}meth-yl)quinoline], the Ki was 43 nM.

On to `CC(=O)N[C@H]1CCN(c2cnc3nnn(Cc4ccc5ncccc5c4)c3n2)C1` [Example 198, N-{(3S)-1-[1-(quino-lin-6-yl-methyl)-1H-[1,2,3]tri-azolo[4,5-b]pyra-zin-6-yl]pyrro-lidin-3-yl}acetamide], for which the Ki stood at 31 nM.

For `CCC1C(=O)NCCN1c1cnc2nnn(Cc3ccc4ncccc4c3)c2n1` (stereo not drawn) [Example 97, 3-ethyl-4-[1-(quino-lin-6-yl-methyl)-1H-[1,2,3]tri-azolo[4,5-b]pyra-zin-6-yl]pipe-razin-2-one], the Ki was 20 nM.

For `O=C(NC1CCNCC1)c1ccc(-c2cnc3nnn(Cc4ccc5ncccc5c4)c3n2)cc1` [Example 10, N-(piperidin-4-yl)-4-(3-(quinolin-6-ylmethyl)-3H-[1,2,3]triazolo[4,5-b]pyrazin-5-yl)benzamide], the Ki was 4 nM.

As for `CNC1CCN(c2cnc3nnn(Cc4ccc5ncccc5c4)c3n2)CC1` [Example 135, N-methyl-1-[1-(quino-lin-6-yl-methyl)-1H-[1,2,3]tri-azolo[4,5-b]pyra-zin-6-yl]pipe-ridin-4-amine], the Ki amounted to 35 nM.

Take `c1cnc2ccc(Cn3nnc4ncc(-c5cnn(CC6CCNCC6)c5)nc43)cc2c1` [Example 4]: the Ki was found to be 69 nM.

Turning to `CC(C)(C(=O)O)n1cc(-c2cnc3nnn(Cc4ccc5ncccc5c4)c3n2)cn1` [Example 68, 2-Methyl-2-[4-(3-quinolin-6-ylmethyl-3H-[1,2,3]triazolo[4,5-b]pyrazin-5-yl)-pyrazol-1-yl]-propionic acid], the inhibition constant Ki stood at 27 nM.

Consider `CC(C)Nc1cnc2nnn(Cc3ccc4ncccc4c3)c2n1` [Example 166, N-isopropyl-1-(quino-lin-6-yl-methyl)-1H-[1,2,3]tri-azolo[4,5-b]pyra-zin-6-amine], for which the Ki came to 4 nM.

Take `CCc1noc(CN(C)c2cnc3nnn(Cc4ccc5ncccc5c4)c3n2)n1` [Example 91, N-[(3-ethyl-124-oxa-diazol-5-yl)meth-yl]-N-meth-yl-1-(quino-lin-6-yl-methyl)-1H-[1,2,3]tri-azolo[4,5-b]pyra-zin-6-amine]: the Ki came out at 25 nM.

Consider `c1cnc2ccc(Cn3nnc4ncc(N5CC[C@@H](N6CCOCC6)C5)nc43)cc2c1` [Example 153, 6-({6-[(3R)-3-morpho-lin-4-ylpyrro-lidin-1-yl]-1H-[1,2,3]tri-azolo[4,5-b]pyra-zin-1-yl}meth-yl)quinoline], for which the Ki turned out to be 15 nM.
